# Molecular target: T1, CRAC ion channels (ICRAC current), RBL-2H3 cells (Rattus norvegicus, UniProt Q5M848)
# T1 construct: endogenous in cells; host or cells: RBL-2H3 (rat basophilic leukemia) cells
# Experiment: Automated patch clamp (Qpatch) inhibition of ICRAC current in RBL-2H3 cells
# Assay type: cell-based
# Conditions: 100 nM compound, % ICRAC inhibition
# Procedure: Automated patch clamp experiments are conducted with the QPatch 16 (Sophion Bioscience, Ballerup, Denmark) at room temperature (21-25° C.). Immediately following the establishment of giga-seal whole-cell configuration, the cells membrane potential is clamped at 0 mV. Voltage ramps of 50 ms duration spanning the voltage range of −100 to +100 mV are then stimulated at a rate of 0.33 Hz. Currents are filtered at 2.9 kHz and digitized at 200 μs intervals. Capacitive currents and series resistance are determined and corrected before each voltage ramp using the automatic capacitance compensation.
# RBL-2H3 are grown in DMEM media supplemented with 10% fetal bovine serum, penicillin 100 U/ml and streptomycin […] in an atmosphere of 95% air/5% CO2. Cells are grown to confluence in 175 cm^2 tissue culture flask. On the experimental day, cells harvested with 0.25% trypsin/0.02% EDTA and resuspended in extracellular solution at density of 5×10^6 cells/ml.
# The intracellular solution contains Cs-Glutamate 90 mM; NaCl 8 mM; MgCl2 3 mM; CsCl 20 mM; CsBAPTA 20 mM; HEPES 10 mM; InsP3 0.02 mM; pH=7.2 adjusted with CsOH.
# The extracellular solution contains NMDGCl 120 mM; KCl 5.4 mM; CsCl 10 mM; CaCl2 10 mM; MgCl2 1 mM; HEPES 10 mM; Glucose 5.5 mM; at pH=7.4 adjusted with HCl.
# ICRAC currents are measured using 50 msec voltage ramps between −100 mV to +100 mV. The voltage ramps are stimulated every 3 seconds for at least 570 seconds. The maximum ICRAC current is allowed to develop for at least 135 seconds. Compounds diluted in extracellular solutions are then applied twice, 30 seconds apart. After incubating the cells with compound for 435 seconds, a reference solution is applied at the end of the experiment. The reference solution is a Ca^2+ free extracellular solution.
# Off-line analysis with the Qpatch software is used to plot the current value at −80 mV for each ramp trace against time. The resulting current versus time data is then exported into a Microsoft Excel spreadsheet. The ICRAC membrane currents are separated from the cells basal background currents by either subtracting out the average membrane current values during the first 1-3 traces, or the average membrane current values obtained with the reference solution at the end of the experiment. The % ICRAC inhibition in each cell is calculated by comparing the amount of current just prior to the first compound addition to the amount of current after the cells has been perfused with the compound for at least 400 seconds.
# T1 sequence (Q5M848 whole entry): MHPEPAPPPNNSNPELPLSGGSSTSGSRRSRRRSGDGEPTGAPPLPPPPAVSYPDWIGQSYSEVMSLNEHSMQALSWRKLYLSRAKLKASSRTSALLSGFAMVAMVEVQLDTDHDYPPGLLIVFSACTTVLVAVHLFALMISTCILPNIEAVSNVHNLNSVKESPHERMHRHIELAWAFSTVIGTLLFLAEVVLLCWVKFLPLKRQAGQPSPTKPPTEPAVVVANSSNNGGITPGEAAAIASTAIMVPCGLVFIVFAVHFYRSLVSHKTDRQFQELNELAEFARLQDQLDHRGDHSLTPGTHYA
row,inhibition at 0.1 µM [%],Compound
1,67,Cn1nnc(N2CCC(C3CC3)=C(c3ccc(NC(=O)c4c(F)cccc4F)cc3)C2)n1 [Compound 9]
2,87,CCc1c(F)cncc1C(=O)Nc1ccc(C2=C(C)CCN(c3nnn(C)n3)C2)cc1 [Compound 10]
3,53,CC1=C(c2ccc(NC(=O)c3c(F)cccc3F)cc2)CN(c2nnn(C)n2)CC1 [Compound 11]
4,74,CC1=C(c2ccc(NC(=O)c3cccc(F)c3F)cc2)CN(c2nnn(C)n2)CC1 [Compound 14]
5,53,CC1=C(c2ccc(NC(=O)c3ccncc3Cl)cc2)CN(c2nnn(C)n2)CC1 [Compound 15]
6,69,CC1=C(c2ccc(NC(=O)c3cccc(F)c3Cl)cc2)CN(c2nnn(C)n2)CC1 [Compound 16]
7,74,Cn1nnc(N2CCC(Cl)=C(c3ccc(NC(=O)c4c(F)cccc4F)cc3)C2)n1 [Compound 18]
8,65,CC1=C(c2ccc(NC(=O)c3cccc(F)c3C)nc2)CN(c2nnn(C)n2)CC1 [Compound 20]
9,43,CCC1=C(c2ccc(NC(=O)c3cnccc3C)cc2)CN(c2nnn(C)n2)CC1 [Compound 22]
10,81,CCn1nnc(N2CCC(C)=C(c3cnc(NC(=O)c4c(F)cccc4Cl)cn3)C2)n1 [Compound 23]
11,69,CC1=C(c2ccc(NC(=O)c3ccncc3F)cc2)CN(c2nnn(C)n2)CC1 [Compound 26]
12,68,CCn1nnc(N2CCC(C)=C(c3ccc(NC(=O)c4cncc(F)c4C)cc3)C2)n1 [Compound 27]
13,85,CC1=C(c2ccc(NC(=O)c3cc(F)ccc3C)nc2)CN(c2nnn(C)n2)CC1 [Compound 29]
14,72,CC1=C(c2ccc(NC(=O)c3c(C)cccc3Cl)cc2)CN(c2nnn(C)n2)CC1 [Compound 31]
15,88,Cn1nnc(N2CCC(Cl)=C(c3cnc(NC(=O)c4cc(F)ccc4Cl)cn3)C2)n1 [Compound 36]

# System: IL-2 production
# Experiment: Inhibition of IL-2 production (Jurkat/PHA/1% FBS, ELISA)
# Assay type: cell-based
# Conditions: Homo sapiens, Jurkat, 20 h, Jurkat cells, PHA 2.5 μg/mL
# Procedure: JurkaT-cells were placed in a 96 well plate (0.5 million cells per well in 1% FBS medium), and then a test compound of this invention was added at different concentrations. After 10 minutes, the cells were activated with PHA (final concentration 2.5 μg/mL) and incubated for 20 hours at 37° C. under 5% CO2. The final volume was 200 μL. Following incubation, the cells were centrifuged, and the supernatants collected and stored at −70° C. prior to assaying for IL-2 production. A commercial ELISA kit (IL-2 Eli-pair, Diaclone Research, Besancon, France) was used to detect production of IL-2, from which dose response curves were obtained. The IC50 value was calculated as the concentration at which 50% of maximum IL-2 production after stimulation was inhibited versus a non-stimulation control.
row,IC50 [µM],Compound
1,0.01,[2H]C([2H])([2H])n1nnc(N2CCC(C)=C(c3ccc(NC(=O)c4cccc(F)c4F)cc3)C2)n1 [Compound 1]
2,0.011,CC1=C(c2ccc(NC(=O)c3cccc(F)c3F)cc2)CN(c2nnn(CF)n2)CC1 [Compound 2]
3,0.012,CCC1=C(c2ccc(NC(=O)c3cccc(F)c3F)cc2)CN(c2nnn(CF)n2)CC1 [Compound 3]
4,0.012,Cn1nnc(N2CCC(Cl)=C(c3ccc(NC(=O)c4c(F)cccc4F)nc3)C2)n1 [Compound 4]
5,0.013,CC1=C(c2cnc(NC(=O)c3c(F)cccc3Cl)cn2)CN(c2nnn(C)n2)CC1 [Compound 5]
6,0.013,CC1=C(c2ccc(NC(=O)c3cncc(F)c3C)cc2)CN(c2nnn(C)n2)CC1 [Compound 6]
7,0.014,CCC1=C(c2ccc(NC(=O)c3cccc(F)c3F)cc2)CN(c2nnn(C)n2)CC1 [Compound 7]
8,0.015,CC1=C(c2ccc(NC(=O)c3c(F)cccc3F)nc2)CN(c2nnn(C)n2)CC1 [Compound 8]
9,0.015,Cn1nnc(N2CCC(C3CC3)=C(c3ccc(NC(=O)c4c(F)cccc4F)cc3)C2)n1 [Compound 9]
10,0.016,CCc1c(F)cncc1C(=O)Nc1ccc(C2=C(C)CCN(c3nnn(C)n3)C2)cc1 [Compound 10]
11,0.017,CC1=C(c2ccc(NC(=O)c3c(F)cccc3F)cc2)CN(c2nnn(C)n2)CC1 [Compound 11]
12,0.017,CC1=C(c2ccc(NC(=O)c3c(F)cccc3Cl)nc2)CN(c2nnn(C)n2)CC1 [Compound 13]
13,0.018,CC1=C(c2ccc(NC(=O)c3cccc(F)c3F)cc2)CN(c2nnn(C)n2)CC1 [Compound 14]
14,0.026,CC1=C(c2ccc(NC(=O)c3cccc(F)c3F)cc2)CN(c2nnn(C(F)F)n2)CC1 [Compound 21]
15,0.029,CCC1=C(c2ccc(NC(=O)c3cnccc3C)cc2)CN(c2nnn(C)n2)CC1 [Compound 22]
16,0.033,CCC1=C(c2ccc(NC(=O)c3cccc(F)c3F)cc2)CN(c2nnn(CC)n2)CC1 [Compound 24]
17,0.037,CC1=C(c2ccc(NC(=O)c3ccncc3F)cc2)CN(c2nnn(C)n2)CC1 [Compound 26]
18,0.037,CCn1nnc(N2CCC(C)=C(c3ccc(NC(=O)c4cncc(F)c4C)cc3)C2)n1 [Compound 27]
19,0.039,Cn1nnc(N2CCC(Cl)=C(c3ccc(NC(=O)c4ccncc4F)cc3)C2)n1 [Compound 28]
20,0.046,CC1=C(c2cnc(NC(=O)c3c(F)cccc3F)cn2)CN(c2nnn(C)n2)CC1 [Compound 32]
21,0.047,CCn1nnc(N2CCC(C)=C(c3ccc(NC(=O)c4cccc(F)c4F)cc3)C2)n1 [Compound 34]
22,0.049,CC(C)C1=C(c2cnc(NC(=O)c3c(F)cccc3F)cn2)CN(c2nnn(C)n2)CC1 [Compound 35]
23,0.055,CC1=C(c2ccc(NC(=O)c3ccccc3F)nc2)CN(c2nnn(C)n2)CC1 [Compound 42]
24,0.056,Cn1nnc(N2CCC(Cl)=C(c3ccc(NC(=O)c4ccncc4Cl)cc3)C2)n1 [Compound 43]
25,0.056,CC1=C(c2ccc(NC(=O)c3c(F)cccc3F)cc2)CN(c2nnn(C(C)C)n2)CC1 [Compound 44]
26,0.062,COc1cc(C)c(C(=O)Nc2ccc(C3=C(C)CCN(c4nnn(C)n4)C3)cc2)cn1 [Compound 48]

row,IC50 [µM],Compound
1,0.067,CCC1=C(c2cnc(NC(=O)c3ccc(F)cc3F)cn2)CN(c2nnn(C)n2)CC1 [Compound 49]
2,0.074,CC1=C(c2cnc(C(=O)Nc3c(F)cccc3F)cn2)CN(c2nnn(C)n2)CC1 [Compound 50]
3,0.075,CC1=C(c2ccc(NC(=O)c3ccccc3Cl)nc2)CN(c2nnn(C)n2)CC1 [Compound 51]
4,0.077,CCCn1nnc(N2CCC(C)=C(c3ccc(NC(=O)c4cccc(F)c4F)cc3)C2)n1 [Compound 52]
5,0.085,CC1=C(c2ccc(NC(=O)c3cc(F)ccc3Cl)cc2)CN(c2nnn(C)n2)CC1 [Compound 53]
6,0.096,CCn1nnc(N2CCC(C)=C(c3ccc(NC(=O)c4cnccc4C)cc3)C2)n1 [Compound 55]
7,0.1,CC1=C(c2ccc(NC(=O)c3c(Cl)cncc3Cl)cc2)CN(c2nnn(C)n2)CC1 [Compound 57]
8,0.104,CC1=C(c2cnc(NC(=O)c3ccc(F)cc3F)cn2)CN(c2nnn(C)n2)CC1 [Compound 58]
9,0.105,CCc1c(F)cncc1C(=O)Nc1ccc(C2=C(C)CCN(c3nnn(CC)n3)C2)cc1 [Compound 59]
10,0.114,CC1=C(c2ccc(NC(=O)c3cccnc3C)cc2)CN(c2nnn(C)n2)CC1 [Compound 60]
11,0.124,CC1=C(c2ccc(NC(=O)c3cccc(Cl)c3Cl)cc2)CN(c2nnn(C)n2)CC1 [Compound 62]
12,0.124,CC1=C(c2ccc(NC(=O)c3ncncc3C)cc2)CN(c2nnn(C)n2)CC1 [Compound 63]
13,0.126,CC(C)C1=C(c2ccc(NC(=O)c3ccc(F)cc3F)nc2)CN(c2nnn(C)n2)CC1 [Compound 64]
14,0.127,CC1=C(c2ccc(C(=O)Nc3c(F)cccc3F)cn2)CN(c2nnn(C)n2)CC1 [Compound 65]
15,0.147,CC1=C(c2cnc(NC(=O)c3cncc(F)c3C)cn2)CN(c2nnn(C)n2)CC1 [Compound 66]
16,0.15,Cc1ccncc1C(=O)Nc1ccc(C2=C(Cl)CCN(c3nnn(C)n3)C2)cn1 [Compound 67]
17,0.163,COc1cccc(F)c1C(=O)Nc1ccc(C2=C(C)CCN(c3nnn(C)n3)C2)cc1 [Compound 68]
18,0.219,CC1=C(c2ccc(NC(=O)c3cnc(C)cc3C)cc2)CN(c2nnn(C)n2)CC1 [Compound 69]
19,0.289,CCn1nnc(N2CCC(C)=C(c3ccc(NC(=O)c4cc(C)ncc4C)cc3)C2)n1 [Compound 70]
20,0.312,CC1=C(c2ccc(NC(=O)c3cccc(F)c3F)cc2)CN(c2nnn(CC(C)C)n2)CC1 [Compound 71]
21,0.335,CC1=C(c2cnc(NC(=O)c3cnccc3C)cn2)CN(c2nnn(C)n2)CC1 [Compound 72]
22,0.423,CC1=C(c2cnc(NC(=O)c3ccncc3Cl)cn2)CN(c2nnn(C)n2)CC1 [Compound 73]
23,0.698,CCn1nnc(N2CCC(C)=C(c3ccc(NC(=O)c4cncnc4C)cc3)C2)n1 [Compound 74]
24,0.803,CC1=C(c2cnc(NC(=O)c3cc(F)cc(F)c3)cn2)CN(c2nnn(C)n2)CC1 [Compound 75]
25,1,COc1ccc(F)cc1C(=O)Nc1ccc(C2=C(C)CCN(c3nnn(C)n3)C2)cc1 [Compound 76]

# Same assay, conditions: Jurkat cells, PHA 2.5 μg/mL, 20 hours
row,IC50 [µM],Compound
1,0.022,CC1=C(c2ccc(NC(=O)c3cccc(F)c3F)cc2)CN(c2nnn(C)n2)CC1 [Compound 19]
